Earlier results on one compound are cited in patent US20190210972A1, “METHODS OF RESOLVING RACEMIC MIXTURE TO OBTAIN (-)-HUPERZINE A” (AMPHASTAR NANJING PHARMACEUTICALS INC., priority 2014, published 2019).

In this series the test system is patients with Alzheimer's disease. The following applies: double-blind, placebo-controlled.

As to `C/C=C1\C2C=C(C)C[C@]1(N)c1ccc(=O)[nH]c1C2` (single isomer, unassigned; (-)) [(−)-Huperzine A], the “cognitive function and quality of life of trial participants” value was “Significant improvements”.
